According to US7250397B2, “Antiarrhythmic peptides” (Zealand Pharma A/S, priority 2000, dated 2007):
pEC50, pIC50: −log10 of the molar value. [ ]: non-standard residue; d: D form. The star is where a group is joined. Hyp = O=C(O)[C@@H]1C[C@@H](O)CN1; dHyp = O=C(O)[C@H]1C[C@H](O)CN1; T4C = not defined here; Acm = CC(=O)NC*; Sar = CNCC(=O)O

Tests used:
[1] = system: phospho-inositol turnover in neonatal rat cardiomyocytes; test: Phosphoinositol turnover in rat primary cardiomyocytes; type: cell-based; conditions: for pEC50: Rattus norvegicus, Cardiomyocyte
Description: Neonatal Wistar rats (1-2 days old) are used. Hank's calcium- and magnesium-free balanced salt solution, buffered with 10 mM HEPES is used for washing during cell separation procedures. The hearts are excised, the ventricles isolated and the tissue cut into small pieces. The myocardial cells are isolated by stepwise enzymatic degradation with collagenase 0.05%, as described by^[35]. After repeated rounds of centrifugation and washing, the precipitated cells are resuspended in culture medium M199 with Earle's salt, 10% NCS, penicillin (75 U/mL), and streptomycin (75 U/mL) and pre-plated in a Petri dish for 90 minutes. The non-adherent cells are collected in the culture medium and plated in multidishes at 2.5*10^5 cells/well. The cultures are kept in a water-saturated CO2-incubator at 37° C. The cardiomyocyte cultures are used for analyses after 6-7 days.
Cardiomyocyte cultures are incubated for 48 hours in culture medium containing […] myo-[2-^3H]inositol to label the inositol phospholipids. On the day of analysis the medium is replaced by a buffer solution containing lithium and incubated at 37° C., as described by Meier et al.^[36]. After at least five minutes this buffer is replaced by the same volume of buffer containing test compound and incubated for exactly 20 minutes. The reaction is stopped by rapid replacement of the buffer by ice cold 4% v/v perchloric acid (PCA) and incubation for at least 20 minutes at 0° C. The PCA-extract is neutralised and the [^3H]inositol phosphates are separated by anion-exchange chromatography using Amprep™ columns containing 100 mg SAX Quaternary amine. The [^3H]inositol mono-phosphates are eluted and radioactivity in the fraction measured by liquid scintillation counting.
Before adding test substances to the cultures, the cells are depleted of glucose and oxygen by incubating them in a N2-atmosphere in glucose-free lithium-buffer for 10 minutes at 37° C. Control cells are incubated likewise only at normal atmospheric conditions and in a buffer containing glucose.

[2] = system: CHO cells; test: In situ binding of [125I]AAP10 on intact CHO cells; conditions: overnight at 4° C.
Description: CHO cells are seeded in 24-multi well dishes in a density of 7,900 cells/cm^2 (˜15,000 cells/well) and grown for 3 Days In Vitro (DIV) in 1 ml/well of F-12K Nutrient Mixture supplemented with […] (FCS) and 1000 units penicillin/1000 μg streptomycin (pen/strep) in an atmosphere of 5% CO2 and 100% humidity at 37° C. The cell density has at that time increased to 295,000 cells/cm^2 (152 pgprot/cell˜85 μgprot/well).
On the day of analysis cells are removed from the incubator and each well is washed twice with, depending on the experiment, either 2 ml pre-warmed (37° C.) or ice-cold (0° C.) D-PBS to remove serum. It is important to keep the period to a minimum during which cells are left without physiological solutions to avoid that they dry out during washing procedures. The cold washed cells are used directly for binding assays while the warm washed cells are used for experiments with glucose and oxygen deprivation.
Cells are incubated for 10 min in an N2-atmosphere in glucose free D-PBS (pH 7.2) pre-equilibrated with N2 for at least 10 min at 37° C. Control cells are incubated likewise for 10 min at 37° C., only, at normal atmospheric conditions and in D-PBS containing glucose (6 mM). […]
0.25 ml of 0.5% Triton-X-100 (v/v) is added to each well and cells left for at least 1 h to solubilize. […] The vials are counted in a γ-counter.

[3] = system: calcium-induced arrythmias; test: Calcium-induced arrhythmia model in mice; type: in vivo; conditions: maximal effect; i.v.; time until 2nd degree AV-block during CaCl2 infusion relative to vehicle treated mice
Description: The antiarrhythmic effects of compounds of this invention were tested in an in vivo model of calcium-induced arrythmias according to the model of Lynch et al.^[37]. […]. Commercial solutions of hypnorm and midazolam were diluted 1:1 in distilled water and one part diluted Hypnorm® is mixed with one part diluted midazolam.
The anaesthesia was induced by s.c. administration in a dose of 0.05-0.075 μl/10 gram mouse. An i.v cannula was inserted into the tail vein. The lead II ECG signal was recorded continuously by positioning of a stainless steel ECG electrodes on the right forelimb and on the left hind limb. The ground electrode was placed on the right hind limb. The signal was amplified (x 5.000-10.000) and filtered (0.1-150 Hz) via a Hugo Sachs Electronic model 689 ECG module. The analogue signal was digitised via a 12 bit data acquisition board (Data Translation model DT321) and sampled at 1000 Hz using the Notocord HEM 3.1 software for Windows NT. After a 10-min equilibration period, the test sample of drug was injected into the tail vein. Mice pre-treated with vehicle were tested as a measure of the control level in untreated animals. The injection volume was 100 μl in all experiments. Infusion of CaCl2 (30 mg/ml, 0.1 ml/min≈100 mg/kg/min (calciumchlorid-2-hydrat, Riedel-de Häen, Germany)) was started 3 min after i.v. administration of drug or vehicle. The time lag to onset of 2nd degree AV-block was determined as the time from the start of CaCl2 infusion until the first arrhythmic event occured. An event of 2nd degree AV-block was defined as intermittent failure of the AV conduction characterised by a P-wave without the concomitant QRS complex.
Responses were expressed relative to the time until 2nd degree AV-block occurred in vehicle treated mice.

[4] = system: guinea pig papillary muscle; conditions: 1 μM; normoxic conditions; cited from earlier work
[5] = system: membranes from rabbit heart; conditions: read-out: value given for AAP10 by Dhein et al.; cited from earlier work

Molecule	In vivo activity [3]	other results
NC[C@H](O)c1ccc(O)c(O)c1 [Noradrenaline]	–	pEC50 ([1]; atmosphere of N2 and depleted of glucose): 6.52; pEC50 ([1]; normal atmospheric and nutritional conditions): 6.69
ASAL(mono-iodo)-Pro-Hyp-Gly-Ala-Gly-NH2 [Compound 32]	+++ (>60% increase in time until arrhythmia)	pIC50 [2]: 9.30
Ac-Gly-Asn-Tyr-NH2 [Compound 40]	++ (30-50% increase in time until arrhythmia)	–
H-Gly-Asn-Tyr-NH2 [Compound 41]	++ (30-50% increase in time until arrhythmia)	–
Cyclo(Tyr-Pro-4Hyp-Gly-Ala-Gly-Asn) [Compound 3]	+++ (>60% increase in time until arrhythmia)	–
H-Gly-Ala-Gly-Asn-Tyr-NH2 (H-GAGNY-NH2) [Compound 39]	+++ (>60% increase in time until arrhythmia)	–
H-GAG[Hyp]PY-NH2 [Compound CE2]	+++ (>60% increase in time until arrhythmia)	decrease of stimulus-response-interval [4]: about 10%; EC50 relative to the EC50 of Compound 2 ([1]; during normoxia): 200 fold; EC50 relative to the EC50 of Compound 2 ([1]; metabolic stress induced by anoxia and glucose deprivation): 10 fold; pIC50 [5]: 9.70
H-Gly-Ala-Gly-T4C-Pro-Tyr-NH2 (H-GAG[T4C]PY-NH2; reading uncertain; also: printed as H-Gly-Ala-Gly-T4C-Pro-Tyr-NH2) [Compound 12]	++ (30-50% increase in time until arrhythmia)	–
cyclo(-Gly-Ala-Gly-Hyp-Pro-Tyr-Gln-) (cyclo(GAG[Hyp]PYQ); SMILES C[C@@H]1NC(=O)CNC(=O)[C@H](CCC(N)=O)NC(=O)[C@H](Cc2ccc(O)cc2)NC(=O)[C@@H]2CCCN2C(=O)[C@@H]2C[C@@H](O)CN2C(=O)CNC1=O) [Compound 35]	++ (30-50% increase in time until arrhythmia)	–
H-GAG[dHyp]AY-NH2 [Compound 9]	+ (15-29% increase in time until arrhythmia)	–
H-GP[Hyp]GAG-OH [Compound CE1, reference compound]	++ (30-50% increase in time until arrhythmia)	–
Ac-D-Tyr(3,5-di-I)-D-Pro-D-Hyp-Gly-D-Ala-Gly-NH2 [Compound 24]	–	pIC50 [2]: 7.19
3-(4-hydroxyphenyl)propionyl-Pro-Hyp-Gly-Ala-Gly-OH [Compound CE3, reference compound]	++ (30-50% increase in time until arrhythmia)	–
H-C(Acm)GAG[Hyp]PYC(Acm)-NH2 [Compound 16]	+ (15-29% increase in time until arrhythmia)	–
H-Gly-Ala-Sar-Hyp-Pro-Tyr-NH2 (H-GA[Sar][Hyp]PY-NH2; SMILES C[C@H](NC(=O)CN)C(=O)N(C)CC(=O)N1C[C@H](O)C[C@H]1C(=O)N1CCC[C@H]1C(=O)N[C@@H](Cc1ccc(O)cc1)C(N)=O) [Compound 30]	++ (30-50% increase in time until arrhythmia)	–
H-Gly-Ala-Gly-PC-Pro-Tyr-NH2 (GAGPY; PC residue; C-terminal amide; Description of Artificial Sequence: Synthetic antiarrythmic peptide; PC between positions 3 and 4) [Compound 14]	+ (15-29% increase in time until arrhythmia)	–
Ac-Tyr-Pro-4Hyp-Gly-Ala-Gly-OH (Ac-YP[Hyp]GAG-OH; SMILES CC(=O)N[C@@H](Cc1ccc(O)cc1)C(=O)N1CCC[C@H]1C(=O)N1C[C@H](O)C[C@H]1C(=O)NCC(=O)N[C@@H](C)C(=O)NCC(=O)O) [Compound 1]	+ (15-29% increase in time until arrhythmia)	–
H-Hyp-Pro-Tyr-Asn-Gly-Ala-Gly-NH2 (H-[Hyp]PYNGAG-NH2; SMILES C[C@H](NC(=O)CNC(=O)[C@H](CC(N)=O)NC(=O)[C@H](Cc1ccc(O)cc1)NC(=O)[C@@H]1CCCN1C(=O)[C@@H]1C[C@@H](O)CN1)C(=O)NCC(N)=O) [Compound 28]	(+) (≦15% increase in time until arrythmia)	–
cyclo(-Gly-Ala-Gly-Hyp-Pro-Tyr-Asn-) (cyclo(GAG[Hyp]PYN)) [Compound 36]	+++ (>60% increase in time until arrhythmia)	–
H-[Sar]A[Sar][Hyp]PY-NH2 [Compound 29]	+ (15-29% increase in time until arrhythmia)	–
H-GAG[dHyp]PY-NH2 [Compound 5]	++ (30-50% increase in time until arrhythmia)	–
H-GAG[dHyp][dP]Y-NH2 [Compound 10]	+++ (>60% increase in time until arrhythmia)	–
